This passage reports remaining activity results from article PMC8469457, “Proline-Specific Fungal Peptidases: Genomic Analysis and Identification of Secreted DPP4 in Alkaliphilic and Alkalitolerant Fungi” (Journal of Fungi, 2021).

This assay has as its target T1, DPP4 of S. alkalinus F11 (secreted DPP4, culture filtrate) (Sodiomyces alkalinus, UniProt A0A3N2PX53).
T1 construct: gene SODALDRAFT_276413; native secreted enzyme, unpurified 14-day culture filtrate; link of ROT38925.1 to the assayed activity is inferred
T1 sequence (A0A3N2PX53 27-782): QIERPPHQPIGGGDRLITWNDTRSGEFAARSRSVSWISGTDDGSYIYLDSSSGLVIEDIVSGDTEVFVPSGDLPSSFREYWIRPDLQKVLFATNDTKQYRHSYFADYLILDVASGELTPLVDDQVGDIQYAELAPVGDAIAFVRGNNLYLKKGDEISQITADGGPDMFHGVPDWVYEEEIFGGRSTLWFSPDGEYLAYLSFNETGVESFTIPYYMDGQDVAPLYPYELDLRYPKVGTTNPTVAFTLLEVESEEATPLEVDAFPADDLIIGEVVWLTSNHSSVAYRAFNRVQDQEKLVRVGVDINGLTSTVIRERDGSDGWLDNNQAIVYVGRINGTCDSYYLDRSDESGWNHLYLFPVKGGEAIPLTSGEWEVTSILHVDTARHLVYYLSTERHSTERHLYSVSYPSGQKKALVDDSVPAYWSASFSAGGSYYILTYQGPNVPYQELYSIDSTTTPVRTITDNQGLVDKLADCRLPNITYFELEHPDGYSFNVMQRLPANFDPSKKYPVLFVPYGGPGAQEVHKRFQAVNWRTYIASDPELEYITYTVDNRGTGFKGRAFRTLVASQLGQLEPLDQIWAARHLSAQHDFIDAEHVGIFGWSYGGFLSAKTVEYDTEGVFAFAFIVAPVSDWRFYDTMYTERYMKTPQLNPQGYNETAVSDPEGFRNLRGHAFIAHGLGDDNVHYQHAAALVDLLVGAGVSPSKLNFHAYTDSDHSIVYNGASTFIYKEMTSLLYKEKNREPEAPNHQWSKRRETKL
The assay can be described thus: residual hydrolysis of Ala-Pro-pNa, absorbance at […] nm, culture filtrate. The settings on record: read-out: % residual activity at 0.25 mM. Format: biochemical.

With `CC[C@H](C)[C@H](N)C(=O)N1CCC[C@H]1C(=O)N[C@H](C(=O)O)[C@@H](C)CC` [diprotin A], the remaining activity at 250 µM was determined as 3.2%.
